Experimental data from patent US20240307335A1, “IRG Blockade to Armor CAR T Cells Against Myeloid Dysfunction” (ROSWELL PARK CANCER INSTITUTE CORPORATION, priority 2023, published 2024).

Columns and labels:
Assay type in all cases: cell-based, mouse
[1] = system: CAR T cells cocultured with fresh Eμ-myc cells; assay: Cytokine secretion assay (Ella automated ELISA) with CAR T cells isolated from initial coculture; conditions: CAR T cells isolated after 48 h coculture with Eμ-myc cells with NCX-4016 (100 PM) or PNT (50 μM); supernatants at 24 h
Experimental: (§1) CAR T cell isolation from initial coculture for subsequent downstream assays: 1×10^6 CAR T cells and 1×10^6 Eμ-myc-GFP-FFL cells were cocultured in the absence or presence of 0.25×10^6 macrophages in a 6-well plate in 6 ml of media for 48 h. After initial coculture, cells were harvested, and T cells were isolated using Mouse T Cell Isolation Kit ([…] Technologies). […] Percentage of CAR-expressing T cells was determined with flow cytometry and were subsequently used for downstream assays.
Cytokine secretion assay: 2×10^4 Eμ-myc cells were cocultured with 2×10^4 CAR T cells in a 96-well plate in a total volume of 100 μl of media. Supernatants were collected and analyzed for IFN-γ and TNF-α secretion using Ella automated immunoassay system (Proteinsimple Bio-techne) according to manufacturer's instructions.

[2] = system: CAR T cells cocultured with Eμ-myc cells with or without macrophages (imMac); assay: Expansion assay of mCherry+ CAR T cells (IncuCyte live cell analysis) in cocultures; conditions: for CAR T cell expansion: CAR T cells cocultured with Eμ-myc cells without macrophages, agent present; for CAR T cell expansion / CAR T cell expansion in cocultures with imMac: over 48 h
Experimental: Macrophage development and polarization: BMDMs were generated from bone marrow cells harvested from femurs and tibias of WT or iNOS^−/− mice. […] On day 3, 10 ml of fresh medium with 20 ng/ml M-CSF was added. On day 5, the culture medium was entirely discarded and replaced by 15 ml of fresh medium with 20 ng/ml M-CSF. On day 6, BMDMs were activated for 24 h with 20 ng/ml of IL-4 and IL-10 (Peprotech) to develop imMac or cultured in media only to use as unMac. M-CSF (20 ng/ml) was added during activation with cytokines. On day 7, adherent cells were harvested by gentle scraping and used for in vitro experiments.
Expansion assay: The expansion of mCherry^+ CAR T cells was determined by an IncuCyte S3 live cell analysis system (Essen Bioscience). 2×10^4 Eμ-myc cells and 2×10^4 CAR T cells were cocultured in the absence or presence of 0.5×10^4 macrophages (CAR T:Eμ-myc cell:Macrophage=1:1:0.25, unless otherwise indicated in the figures) in a 96-well black-walled clear bottom plate in 120 μl of media. Cell images were captured at 4× magnification. The expansion index was calculated by dividing the total integrated red intensity (RCU×m^2/mm^2) at each time point by the first time point.
Immunoregulatory actions of macrophages on CAR T cells: To explore how M2-like macrophages may impact the cellular function of CAR T cells, the study employed a syngeneic coculture system (FIG. 3A). […] The BMDMs were either unpolarized (unMac) or induced to differentiate into M2-like macrophages by culturing with type 2 cytokines IL-4 and IL-10. […] The study next explored the impact of imMac on CAR T cell effector function. To exclude the direct contribution of macrophage effector activities in these functional assays, CAR T cells, Eμ-myc cells, and macrophages were first cocultured for 48 hours (FIG. 3G). Next, CAR T cells isolated from the cocultures were evaluated for their effector function against fresh Eμ-myc cells.

Eμ-myc cells = assay: Luciferase-based killing assay with CAR T cells isolated from initial coculture; conditions: CAR T cells isolated after 48 h initial coculture with Eμ-myc cells with NCX-4016 (100 μM) or PNT (50 μM), no macrophages; lysis at 24 h
Experimental: as §1
Luciferase-based killing assay: 2×10^4 Eμ-ALL-GFP-FFL cells were cocultured with CAR T cells at different effector-to-target ratios in a 96-well white-walled plate in 100 μl of media. Following incubation, 100 μl luciferase substrate reagent (ONE-Glo Luciferase assay system, Promega) was added to each well. Target cells alone were plated at the same cell density to determine maximum luciferase signals. Emitted luminescence was detected in the microplate reader (GloMax, Promega). Percent lysis was determined as (1−sample signal/maximum signal)×100.

For `O=NOO` [PNT, peroxynitrite], the “secretion of effector cytokine IFN-γ by CAR T cells” value [1] was “diminished”, the “secretion of effector cytokine TNF-α by CAR T cells” value [1] was “diminished” and the “CAR T cell expansion” value [2] was “inhibition of CAR T cell expansion”. For the same compound, the “lysis of Eμ-myc cells by CAR T cells (ability to kill tumor cells)” value (Eμ-myc cells) was “diminished ability of CAR T cells to kill tumor cells”.

`N=C(NO)NCC[C@H](N)C(=O)O` [nor-NOHA, N(omega)-hydroxy-nor-L-arginine] was tested, and the “CAR T cell expansion in cocultures with imMac” value ([2]; physiological arginine concentration (150 μM), nor-NOHA (50 PM)) was “failed to rescue CAR T cell expansion” and the “CAR T cell expansion in cocultures with imMac” value ([2]; supraphysiological arginine concentration (1.15 mM) in culture media, nor-NOHA (50 PM)) was “did not restore CAR T cell expansion”.

`CC(=O)Oc1ccccc1C(=O)Oc1cccc(CO[N+](=O)[O-])c1` [NCX-4016] was tested, and the “secretion of effector cytokine IFN-γ by CAR T cells” value [1] was “diminished”, the “secretion of effector cytokine TNF-α by CAR T cells” value [1] was “diminished” and the “CAR T cell expansion” value [2] was “inhibition of CAR T cell expansion”. The “lysis of Eμ-myc cells by CAR T cells (ability to kill tumor cells)” value (Eμ-myc cells) was “diminished ability of CAR T cells to kill tumor cells”.

In the case of `C=C(CC(=O)OCCCCCCCC)C(=O)O` [4-OI, 4-octyl itaconate], the “CAR T cell expansion” value [2] was “impaired CAR T cell expansion”, the “CAR T cell expansion” value ([2]; listed as 4OI) was “reduced CAR T cell expansion” and the “CAR T cell expansion” value ([2]; listed as 401) was “reduced CAR T cell expansion”.

For `CC1(C)N([O])C(c2ccc(C(=O)O)cc2)=[N+]([O-])C1(C)C` [c-PTIO, carboxyl-PTIO], the “CAR T cell expansion in cocultures with imMac” value ([2]; CAR T cells and Eμ-myc cells with imMac, agent present (L-NIL 50 μM; anti-IFN-γ 10 μg/mL; c-PTIO)) was “partially rescued the expansion of CAR T cells”.

In the case of `COC(=O)CCC(=O)C(=O)OC` [DMKG], the “rescue of CAR T cell expansion by supplementation” value ([2]; FIG. 15, iNOS in imMac disrupts TCA cycle progression in CAR T cells) was “failed to rescue CAR T cell expansion”.

`NC(=O)NCCC[C@H](N)C(=O)O` [citrulline] was tested, and the “CAR T cell expansion” value [2] was “did not impact the expansion of CAR T cells”.
